Test results taken from patent US11771711B2, “Substituted pyridines as DNMT1 inhibitors” (GlaxoSmithKline Intellectual Property Development Limited, priority 2021, dated 2023).
pIC50: −log10 of the molar value. In brackets after ≈: the same amount, converted by molar mass.

Experiments:
[1] = target: Full-length human DNMT1 (Homo sapiens (Human), UniProt P26358); experiment: DNMT1 Scintillation Proximity Assay (SPA) - Assay A; type: biochemical; conditions: footnote a: DNMT1 full length
Procedure: DNMT1 Scintillation Proximity Assay (SPA)—Assay A (Full-Length Human DNMT1)
This assay used Scintillation Proximity technology in a signal increase format to evaluate the potency of compounds. Full-length human DNMT1, hemi-methylated DNA duplex*, and tritiated SAM were utilized to monitor activity. Assay plate creation consisted of the following parameters: 500 nL of an 11 pt, 3-fold serial dilution of compound was stamped into a 96 well Costar plate (#3884). Assay buffer mix was made on the day of assay consisting of: 20 mM Tris pH 7.5, 1 mM DTT, 1 mM EDTA, and 5% glycerol. A 2× enzyme mix was then prepared consisting of 30 nM DNMT1 protein (full length human DNMT, made in house) in assay buffer. The 2× substrate mix was made last, and consisted of 160 nM 40mer hemi-methylated DNA*, 0.48 μM ^3H-SAM, and 2.92 μM cold SAM in assay buffer (^3H-SAM is added last). The quench (1 mM SAH) was made in bulk and frozen at −20 until the time of use. Ten uL of the 2× substrate mix was added to the entire plate using a multichannel electronic pipette. Plate was shaken for at least 10s between additions to ensure mixing. Next, 20 uL of 2× quench mix was added to column 12 using a multichannel pipette (shake plate). Using a multichannel electronic pipette, 10 uL of 2× enzyme mix was added to the full plate starting with column […] (column 12 last to avoid pre-quench carryover). Plates were incubated on the shaker for 30 minutes with the plate covered. At the end of the incubation period, 20 uL of quench mix were added to all wells except column 12 (shake plate) followed by the addition of 20 uL of 3 mg/mL PerkinElmer PEI PVT SPA Beads (Cat. #RPNQ0097) diluted in DNAse free water and allowed to shake for at least 30 minutes. Plates were sealed with a clear seal and centrifuged at 500 rpm for 1 min. Plates were read on a MicroBeta (Perkin Elmer, read for ^3H (1 min/well).
Microsoft Excel was used to analyze the data up to Vi/Vo and GraFit was used to fit the data. Responses were normalized to the uninhibited (DMSO) and pre-quenched controls within each plate. Dose-response curves were analyzed using a three-parameter logistic fit with Ymin constrained to 0 and results were expressed as IC50 values.
Final assay conditions: 20 mM Tris (Hampton Research—HR-937-06), pH 7.5, 1 mM DTT (Invitrogen—P2325), 1 mM EDTA (Invitrogen—AM9260G), 5% Glycerol (Teknova—G1796), 0.02% Pluronic F127 (Life Technologies—P6866), 15 nM DNMT1 (full length human DNMT1—GSK made in-house), 240 nM ^3H-SAM (PerkinElmer—NET155H001MC), 1460 nM cold SAM (New England Biolabs—B9003S) and 80 nM 40-mer hemi-methylated DNA Oligonucleotide (Integrated DNA Technologies—custom), 1 mM SAH (Sigma A9384), and 1 mg/mL PEI PVT SPA Beads (Perkin Elmer RPNQ0097) resuspended in water.

[2] = physchem; conditions: FaSSIF buffer, pH 6.5, fassif, thermodynamic from solid
Procedure: Solubility of Solid Compounds in Fasted Simulated Intestinal Fluid
The solubility of solid compounds in Fasted Simulated Intestinal Fluid (FaSSIF) was determined at pH 6.5 after 4 hour equilibration at room temperature (using procedures described in Sou, T.; Bergström, C. A. S. Automated assays for thermodynamic (equilibrium) solubility determination. Drug Discovery Today: Technologies 2018, 27, 11-19). 1 ml of FaSSIF buffer (3 mM Sodium taurocholate, 0.75 mM lecithin in sodium phosphate buffer at pH6.5) was added to manually weighed 1 mg of solid compound in a 4 ml vial. The resulting suspension was shaken at 900 rpm for 4 hours at room temperature and then transferred to a Multiscreen HTS, 96-well solubility filter plate to separate the residual solid and the filtrate. Quantification of the compound concentration in the filtrate was performed by HPLC-UV using single point calibration of a known concentration of the compound in DMSO. […] The dynamic range of the assay was 1-1000 μg/ml.

[3] = Rat pharmacokinetic study (oral bioavailability); type: in vivo; conditions: blood, PO gavage vs 60 minute IV infusion, 5% DMA/15% Solutol
Procedure: Pharmacokinetic Studies: All studies were conducted in accordance with the GSK Policy on the Care, Welfare and Treatment of Laboratory Animals and were reviewed either by the Institutional Animal Care and Use Committee at GSK or by the ethical review process at the institution where the studies were performed. Pharmacokinetic studies for example 2 were conducted using non-fasted, Male Wistar Han rats, n=3/dose route and for reference compound 4, non-fasted male Sprague-Dawley rats, n=2/dose route in a non-crossover design. Compounds were prepared as solutions in 5% DMA/15% Solutol and administered as a 60 minute IV infusion and PO gavage. Blood samples were collected serially at multiple time points from pre-dose through 24 hours post dose and the analytes were quantified by LC/MS/MS. The percent bioavailability was calculated by comparison of the dose normalized Area Under the Curve (DNAUC) obtained from PO dosing with the DNAUC from the IV route [(PO DNAUC/IV DNAUC)*100].

[4] = target: Human truncated DNMT1(601-1600) (Homo sapiens (Human), UniProt P26358); experiment: DNMT1 Scintillation Proximity Assay (SPA) - Assay B; type: biochemical; conditions: footnote b: DNMT1 truncate
Chain of Human truncated DNMT1(601-1600) (P26358 601-1600): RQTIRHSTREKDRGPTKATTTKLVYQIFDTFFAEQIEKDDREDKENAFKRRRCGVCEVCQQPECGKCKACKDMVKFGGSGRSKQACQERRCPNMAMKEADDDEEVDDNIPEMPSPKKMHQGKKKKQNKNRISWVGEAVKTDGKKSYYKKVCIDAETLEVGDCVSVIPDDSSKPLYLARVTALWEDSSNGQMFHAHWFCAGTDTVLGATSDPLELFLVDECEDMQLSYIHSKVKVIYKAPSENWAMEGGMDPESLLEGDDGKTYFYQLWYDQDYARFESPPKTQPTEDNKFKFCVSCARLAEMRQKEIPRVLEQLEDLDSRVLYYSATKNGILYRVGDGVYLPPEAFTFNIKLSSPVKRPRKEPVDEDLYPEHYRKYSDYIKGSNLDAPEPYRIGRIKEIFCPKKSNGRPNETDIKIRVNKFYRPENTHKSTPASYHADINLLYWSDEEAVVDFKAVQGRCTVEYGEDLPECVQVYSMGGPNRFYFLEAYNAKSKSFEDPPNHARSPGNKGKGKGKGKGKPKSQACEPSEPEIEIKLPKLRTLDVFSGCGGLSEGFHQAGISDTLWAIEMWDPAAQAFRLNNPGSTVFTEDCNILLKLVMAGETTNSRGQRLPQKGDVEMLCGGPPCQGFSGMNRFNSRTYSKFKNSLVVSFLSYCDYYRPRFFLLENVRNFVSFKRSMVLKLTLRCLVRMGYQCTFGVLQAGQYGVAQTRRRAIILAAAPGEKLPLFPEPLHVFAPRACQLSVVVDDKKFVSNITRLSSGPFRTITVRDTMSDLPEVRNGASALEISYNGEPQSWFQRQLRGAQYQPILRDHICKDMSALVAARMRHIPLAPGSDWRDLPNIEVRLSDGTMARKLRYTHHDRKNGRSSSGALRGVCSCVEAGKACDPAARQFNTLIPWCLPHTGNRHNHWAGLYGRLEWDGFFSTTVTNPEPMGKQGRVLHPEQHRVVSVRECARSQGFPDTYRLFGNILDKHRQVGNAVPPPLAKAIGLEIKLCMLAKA
Procedure: DNMT1 Scintillation Proximity Assay (SPA)—Assay B (Human Truncated DNMT1(601-1600))
This assay used Scintillation Proximity technology in a signal increase format to evaluate the potency of compounds. Human truncated DNMT1(601-1600), single hemi-methylated CpG site oligonucleotide, and Tritiated SAM were utilized to monitor activity. Assay plate creation consisted of the following parameters: 10 mM Compounds (11-point, 3-fold serial dilution) were stamped at 100 nL per well (100× in 100% DMSO) into a Griener white LV 384 well plate (#784075). Assay buffer mix was made on the day of assay consisting of: base buffer: (500 mM Hepes, ph 8, 1M MgCl2 made in advance, stored at room temp as a stock), 10% NP40-Surfact AMPS, 10% Ultrapure BSA 50 mg/ml, and 2M DTT (DL-Dithiolthreitol). The 2× enzyme mix was then prepared consisting of: DNMT1 protein (truncate human DNMT1—601-1600, made in house at 16.876 uM stock concentration) added to the assay buffer mix. […] Plates were read on a Viewlux (PerkinElmer, 613 nm emission filter, 300 sec dual-exposure, (10 min. total read time)).
The Abase database was used to analyze the data. […] Dose-response curves were analyzed using a four-parameter logistic fit and results were expressed as pIC50 values. […]

[5] = internal standards tested alongside in FaSSIF assay; cited from earlier work

Chain of Full-length human DNMT1 (P26358 whole entry): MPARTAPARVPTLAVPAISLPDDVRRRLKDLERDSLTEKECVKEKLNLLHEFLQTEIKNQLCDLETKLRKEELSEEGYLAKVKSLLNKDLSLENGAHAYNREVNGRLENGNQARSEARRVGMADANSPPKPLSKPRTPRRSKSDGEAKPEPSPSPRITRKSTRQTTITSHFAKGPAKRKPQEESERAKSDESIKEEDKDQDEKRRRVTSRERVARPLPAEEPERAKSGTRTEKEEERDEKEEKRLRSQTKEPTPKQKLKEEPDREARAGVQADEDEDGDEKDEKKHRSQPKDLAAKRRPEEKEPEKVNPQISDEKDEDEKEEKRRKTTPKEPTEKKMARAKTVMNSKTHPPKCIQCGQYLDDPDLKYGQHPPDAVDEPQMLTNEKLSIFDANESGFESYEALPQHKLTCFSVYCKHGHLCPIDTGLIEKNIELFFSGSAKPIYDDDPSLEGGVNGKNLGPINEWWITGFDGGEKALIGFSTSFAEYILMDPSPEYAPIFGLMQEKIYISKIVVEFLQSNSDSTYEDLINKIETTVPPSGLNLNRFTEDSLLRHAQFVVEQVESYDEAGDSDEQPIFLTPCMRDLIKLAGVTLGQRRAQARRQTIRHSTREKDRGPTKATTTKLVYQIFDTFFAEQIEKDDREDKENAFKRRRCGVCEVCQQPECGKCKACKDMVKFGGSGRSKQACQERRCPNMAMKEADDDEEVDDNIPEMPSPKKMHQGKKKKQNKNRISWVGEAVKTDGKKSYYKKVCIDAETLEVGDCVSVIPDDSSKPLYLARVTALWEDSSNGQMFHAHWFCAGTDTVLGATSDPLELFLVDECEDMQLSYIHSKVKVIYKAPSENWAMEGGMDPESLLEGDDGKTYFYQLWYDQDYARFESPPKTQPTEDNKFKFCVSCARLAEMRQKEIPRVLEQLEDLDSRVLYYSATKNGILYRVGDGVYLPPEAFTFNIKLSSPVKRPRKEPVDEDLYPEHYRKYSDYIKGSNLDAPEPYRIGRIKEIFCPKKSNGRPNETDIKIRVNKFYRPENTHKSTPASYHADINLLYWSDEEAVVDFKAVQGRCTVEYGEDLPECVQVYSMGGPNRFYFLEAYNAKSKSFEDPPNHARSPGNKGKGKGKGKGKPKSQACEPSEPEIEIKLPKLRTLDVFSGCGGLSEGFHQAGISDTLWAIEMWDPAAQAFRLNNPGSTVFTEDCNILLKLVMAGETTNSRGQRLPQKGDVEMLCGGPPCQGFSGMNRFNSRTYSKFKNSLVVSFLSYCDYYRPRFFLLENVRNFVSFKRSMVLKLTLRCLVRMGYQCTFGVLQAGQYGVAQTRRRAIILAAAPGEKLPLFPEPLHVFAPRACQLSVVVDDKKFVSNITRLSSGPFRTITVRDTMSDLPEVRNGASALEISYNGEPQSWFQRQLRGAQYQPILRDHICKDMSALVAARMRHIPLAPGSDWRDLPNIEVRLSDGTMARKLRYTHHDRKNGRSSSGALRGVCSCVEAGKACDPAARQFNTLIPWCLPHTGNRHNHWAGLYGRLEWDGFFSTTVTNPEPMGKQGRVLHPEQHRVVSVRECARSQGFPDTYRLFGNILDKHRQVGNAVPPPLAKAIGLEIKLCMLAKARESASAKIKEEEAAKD

Compound | pIC50 [1] | solubility at 4 h [2] [µg/mL] | other results
CCc1c(C#N)c(S[C@@H](C(N)=O)c2ccccc2)nc(N2CC[C@H](O)C2)c1C#N [Reference compound 2, reference compound] | 6.81 | 2.7 (≈ 6.63 µM) | –
CCc1c(C#N)c(SC(C(N)=O)c2ccc(Cl)cc2)nc(N(C)C)c1C#N (stereo not drawn) [Reference compound 3] | – | – | pIC50 [4]: 6.20
CCc1c(C#N)c(S[C@@H](C(N)=O)c2ccc(OC)cc2)nc(N2CC[C@H](O)C2)c1C#N [Reference compound 4, reference compound] | – | 4 (≈ 9.14 µM) | pIC50 [4]: 7.10; bioavailability ([3]; non-fasted male Sprague-Dawley rats, n=2/dose route): 6.1%
CC(=O)CC(c1ccccc1)c1c(O)c2ccccc2oc1=O (stereo not drawn) [Warfarin] | – | – | known solubility of internal standards [5]: 140 µg/mL

The next lines start with results.

pIC50 [1] | solubility at 4 h [2] [µg/mL] | Compound | other results
6.97 | < 1 | CCc1c(C#N)c(SC(C(N)=O)c2ccc(OS(C)(=O)=O)cc2)nc(N(C)C)c1C#N (racemic) [Example 4, 4-(2-amino-1-((3,5-dicyano-6-(dimethylamino)-4-ethylpyridin-2-yl)thio)-2-oxoethyl)phenyl methanesulfonate] | –
7.27 | 1 | CCc1c(C#N)c(S[C@@H](C(N)=O)c2ccc(OS(C)(=O)=O)cc2)nc(N(C)C)c1C#N [Example 2, (R)-4-(2-amino-1-((3,5-dicyano-6-(dimethylamino)-4-ethylpyridin-2-yl)thio)-2-oxoethyl)phenyl methanesulfonate] | bioavailability ([3]; non-fasted male Wistar Han rats, n=3/dose route): 40%
5.28 | > 1000 | CCc1c(C#N)c(SC(C(=O)NP(=O)(O)O)c2ccc(OS(C)(=O)=O)cc2)nc(N(C)C)c1C#N (stereo not drawn) [Example 3, (2-((3,5-dicyano-6-(dimethylamino)-4-ethylpyridin-2-yl)thio)-2-(4-((methylsulfonyl)oxy)phenyl)acetyl)phosphoramidic acid] | –
– | < 1 | CCc1c(C#N)c(S[C@@H](C(N)=O)c2ccccc2)nc(N(C)C)c1C#N [Reference compound 1, reference compound] | –
